These results are taken from US12336981B2, “Compounds and compositions for the inhibition of NAMPT” (Valo Health, Inc., priority 2010, dated 2025).

Each structure is given as a SMILES string. pIC50: −log10 of the molar value. Read-outs that look alike come from different tables or passages of the source.

One experiment concerns the target T1, NAMPT (Homo sapiens, UniProt P43490).
T1 construct: His tag; host or cells: E. coli
Put plainly: Biochemical inhibition assay: NAMPT enzymatic reaction, NMN quantified by mass spectrometry. To be noted: read-out: Biochem IC50. The procedure, abridged:
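Inhibition of E. coli-expressed His-tagged human NAMPT, measured as NMN formation by mass spectrometry after a 30 min room-temperature reaction containing 1 μM NAM, 100 μM PRPP and 2.5 mM ATP.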

The next experiment has as its system A2780 cells. In words: In-vitro cell proliferation assay (SRB), A2780 cells. In kind it is cell-based. To be noted: A2780 cells, 72 hours, read-out: A2780 IC50. In short, it runs like this:
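Viable cells measured by SRB staining after 6% TCA fixation, absorbance 570 nm. Media-only background subtracted; % inhibition derived at two compound concentrations.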

The mark [1] stands for this setting: Homo sapiens, A2780, 72 h, SRB assay.

T1 sequence (P43490 whole entry): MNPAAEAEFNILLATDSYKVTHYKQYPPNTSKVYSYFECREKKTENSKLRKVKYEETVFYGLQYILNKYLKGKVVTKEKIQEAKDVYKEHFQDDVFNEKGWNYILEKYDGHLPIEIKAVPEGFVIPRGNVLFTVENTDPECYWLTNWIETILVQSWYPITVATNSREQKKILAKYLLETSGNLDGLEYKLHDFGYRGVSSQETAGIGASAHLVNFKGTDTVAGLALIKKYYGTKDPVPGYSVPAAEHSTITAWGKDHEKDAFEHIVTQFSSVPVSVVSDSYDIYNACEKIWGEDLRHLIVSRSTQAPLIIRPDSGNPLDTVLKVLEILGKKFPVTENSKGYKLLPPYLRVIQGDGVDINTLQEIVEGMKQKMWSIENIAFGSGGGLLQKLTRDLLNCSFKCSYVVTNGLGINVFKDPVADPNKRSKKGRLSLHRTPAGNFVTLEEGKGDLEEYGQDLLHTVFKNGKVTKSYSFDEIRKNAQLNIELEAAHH

The pIC50 is the negative decadic logarithm of the IC50, by convention in mol/L. In the case of `CCN(CC)C(=O)c1cc(F)cc(S(=O)(=O)c2ccc(CNC(=O)c3cnc4nccn4c3)cc2)c1` [N-[(4-{[3-(diethylcarbamoyl)-5-fluorobenzene]sulfonyl}phenyl)methyl]imidazo[1,2-a]pyrimidine-6-carboxamide], the pIC50 at NAMPT (NAMPT enzymatic assay) was 8.33; with A2780 cells (Homo sapiens, A2780, 72 h, SRB), 7.77.

`CCS(=O)(=O)c1cccc(S(=O)(=O)c2ccc(CNC(=O)c3cc4cnccc4[nH]3)cc2)c1` [N-[(4-{[3-(ethanesulfonyl)benzene]sulfonyl}phenyl)methyl]-1H-pyrrolo[3,2-c]pyridine-2-carboxamide]: the negative-log IC50 (pIC50) is 7.77 at NAMPT (NAMPT enzymatic assay) and 7.81 in the experiment with A2780 cells (Homo sapiens, A2780, 72 h, SRB).

Turning to `COCc1cccc(S(=O)(=O)c2ccc(CNC(=O)c3cnc4[nH]ncc4c3)cc2)c1` [N-[(4-{[3-(methoxymethyl)benzene]sulfonyl}phenyl)methyl]-1H-pyrazolo[3,4-b]pyridine-5-carboxamide], the figures for the pIC50 on NAMPT (NAMPT enzymatic assay) and in the experiment with A2780 cells (SRB) were 7.41 and 7.40, respectively.

On to `COCc1cccc(S(=O)(=O)c2ccc(CNC(=O)c3cc4cnccc4[nH]3)cc2)c1` [N-[(4-{[3-(methoxymethyl)benzene]sulfonyl}phenyl)methyl]-1H-pyrrolo[3,2-c]pyridine-2-carboxamide], for which the negative-log IC50 (pIC50) at NAMPT (NAMPT enzymatic assay) was 7.69; in the experiment with A2780 cells (Homo sapiens, A2780, 72 h, SRB) it was 7.89.

Take `O=C(NCc1ccc(S(=O)(=O)c2cccc(N3CCOCC3)c2)cc1)c1ccc2ncsc2c1` [N-[(4-{[3-(morpholin-4-yl)benzene]sulfonyl}phenyl)methyl]-1,3-benzothiazole-6-carboxamide]: the negative-log IC50 (pIC50) at NAMPT (NAMPT enzymatic assay) was 7.40; with A2780 cells (Homo sapiens, A2780, 72 h, SRB), 5.00 to 6.00.

Consider `O=C(NCc1ccc(S(=O)(=O)c2cccc(N3CCCCC3)c2)cc1)c1cc2ccncc2o1` [N-[(4-{[3-(piperidin-1-yl)benzene]sulfonyl}phenyl)methyl]furo[2,3-c]pyridine-2-carboxamide], for which the negative logarithm of the IC50 (pIC50) on NAMPT (NAMPT enzymatic assay) is 7.95; in the experiment with A2780 cells (Homo sapiens, A2780, 72 h, SRB) it was 7.90.

`CC(C)c1cccc(S(=O)(=O)c2ccc(CNC(=O)c3cc4cnccc4[nH]3)cc2)c1` [N-[(4-{[3-(propan-2-yl)benzene]sulfonyl}phenyl)methyl]-1H-pyrrolo[3,2-c]pyridine-2-carboxamide]: the pIC50 at NAMPT (NAMPT enzymatic reaction) is 8.22; in the experiment on A2780 cells (setting [1]), 8.40.

`CC(C)c1cccc(S(=O)(=O)c2ccc(CNC(=O)c3ccc4nccn4c3)cc2)c1` [N-[(4-{[3-(propan-2-yl)benzene]sulfonyl}phenyl)methyl]imidazo[1,2-a]pyridine-6-carboxamide]: the negative-log IC50 (pIC50) is 7.91 on NAMPT (NAMPT enzymatic assay) and 8.46 with A2780 cells (Homo sapiens, A2780, 72 h, SRB).

As to `CC(C)c1cccc(S(=O)(=O)c2ccc(CNC(=O)c3cc4ccncc4s3)cc2)c1` [N-[(4-{[3-(propan-2-yl)benzene]sulfonyl}phenyl)methyl]thieno[2,3-c]pyridine-2-carboxamide], the negative-log IC50 (pIC50) at NAMPT (NAMPT enzymatic reaction) is 8.05; in the experiment with A2780 cells (setting [1]), 8.59.

On to `O=C(NCc1ccc(S(=O)(=O)c2cccc(OC(F)(F)F)c2)cc1)c1cc2cnccc2[nH]1` [N-[(4-{[3-(trifluoromethoxy)benzene]sulfonyl}phenyl)methyl]-1H-pyrrolo[3,2-c]pyridine-2-carboxamide], for which the pIC50 at NAMPT (NAMPT enzymatic reaction) was 8.30; in the experiment on A2780 cells (setting [1]) it was 8.52.

As to `O=C(NCc1ccc(S(=O)(=O)c2cccc(OC(F)(F)F)c2)cc1)c1ccc2nccn2c1` [N-[(4-{[3-(trifluoromethoxy)benzene]sulfonyl}phenyl)methyl]imidazo[1,2-a]pyridine-6-carboxamide], the pIC50 on NAMPT (NAMPT enzymatic assay) was 8.06; with A2780 cells (Homo sapiens, A2780, 72 h, SRB), 8.50.

Regarding `O=C(NCc1ccc(S(=O)(=O)c2cccc(OC(F)(F)F)c2)cc1)c1cc2ccncc2s1` [N-[(4-{[3-(trifluoromethoxy)benzene]sulfonyl}phenyl)methyl]thieno[2,3-c]pyridine-2-carboxamide], the pIC50 on NAMPT (NAMPT enzymatic reaction) is 8.70; in the experiment with A2780 cells (setting [1]), 8.62.

On to `O=C(NCc1ccc(S(=O)(=O)c2cccc(C(F)(F)F)c2)cc1)c1cc2cnccc2[nH]1` [N-[(4-{[3-(trifluoromethyl)benzene]sulfonyl}phenyl)methyl]-1H-pyrrolo[3,2-c]pyridine-2-carboxamide], for which the negative logarithm of the IC50 (pIC50) was 8.05 on NAMPT (NAMPT enzymatic reaction) and 8.52 in the experiment with A2780 cells (setting [1]).

`O=C(NCc1ccc(S(=O)(=O)c2cccc(C(F)(F)F)c2)cc1)c1ccc2nccn2c1` [N-[(4-{[3-(trifluoromethyl)benzene]sulfonyl}phenyl)methyl]imidazo[1,2-a]pyridine-6-carboxamide]: the pIC50 at NAMPT (NAMPT enzymatic assay) was 8.07; in the experiment on A2780 cells (Homo sapiens, A2780, 72 h, SRB), 8.76.

Turning to `O=C(NCc1ccc(S(=O)(=O)c2cccc(C(F)(F)F)c2)cc1)c1cc2ccncc2s1` [N-[(4-{[3-(trifluoromethyl)benzene]sulfonyl}phenyl)methyl]thieno[2,3-c]pyridine-2-carboxamide], the pIC50 on NAMPT (NAMPT enzymatic reaction) was 8.52; with A2780 cells (setting [1]), 9.00.

In the case of `O=C(NCc1ccc(S(=O)(=O)c2ccc(C(F)(F)F)c(Cl)c2)cc1)c1cnc2[nH]ncc2c1` [N-[(4-{[3-chloro-4-(trifluoromethyl)benzene]sulfonyl}phenyl)methyl]-1H-pyrazolo[3,4-b]pyridine-5-carboxamide], the pIC50 was 7.07 at NAMPT (NAMPT enzymatic assay) and 7.58 in the experiment with A2780 cells (Homo sapiens, A2780, 72 h, SRB).

For `CCN(CC)C(=O)c1cc(Cl)cc(S(=O)(=O)c2ccc(CNC(=O)c3cc4ccncc4o3)cc2)c1` [N-[(4-{[3-chloro-5-(diethylcarbamoyl)benzene]sulfonyl}phenyl)methyl]furo[2,3-c]pyridine-2-carboxamide], the pIC50 was 8.08 on NAMPT (NAMPT enzymatic assay) and 8.77 in the experiment on A2780 cells (Homo sapiens, A2780, 72 h, SRB).

As for `O=C(NCc1ccc(S(=O)(=O)c2cc(Cl)cc(C(F)(F)F)c2)cc1)c1cnc2[nH]ncc2c1` [N-[(4-{[3-chloro-5-(trifluoromethyl)benzene]sulfonyl}phenyl)methyl]-1H-pyrazolo[3,4-b]pyridine-5-carboxamide], the negative logarithm of the IC50 (pIC50) at NAMPT (NAMPT enzymatic assay) is 8.11; with A2780 cells (Homo sapiens, A2780, 72 h, SRB), 8.56.

In the case of `O=C(NCc1ccc(S(=O)(=O)c2cc(Cl)cc(C(F)(F)F)c2)cc1)c1cc2cnccc2[nH]1` [N-[(4-{[3-chloro-5-(trifluoromethyl)benzene]sulfonyl}phenyl)methyl]-1H-pyrrolo[3,2-c]pyridine-2-carboxamide], the pIC50 was 7.70 at NAMPT (NAMPT enzymatic assay) and 8.57 in the experiment with A2780 cells (Homo sapiens, A2780, 72 h, SRB).

For the molecule `O=C(NCc1ccc(S(=O)(=O)c2ccc(-n3cccn3)c(F)c2)cc1)c1cc2cnccc2[nH]1` [N-[(4-{[3-fluoro-4-(1H-pyrazol-1-yl)benzene]sulfonyl}phenyl)methyl]-1H-pyrrolo[3,2-c]pyridine-2-carboxamide], the pIC50 on NAMPT (NAMPT enzymatic reaction) was 7.96; with A2780 cells (setting [1]), 8.40.

For the molecule `O=C(NCc1ccc(S(=O)(=O)c2ccc(-n3cccn3)c(F)c2)cc1)c1ccc2nccn2c1` [N-[(4-{[3-fluoro-4-(1H-pyrazol-1-yl)benzene]sulfonyl}phenyl)methyl]imidazo[1,2-a]pyridine-6-carboxamide], the negative-log IC50 (pIC50) on NAMPT (NAMPT enzymatic assay) is 8.27; in the experiment on A2780 cells (Homo sapiens, A2780, 72 h, SRB), 8.47.

With `O=C(NCc1ccc(S(=O)(=O)c2ccc(OCC(F)(F)F)c(F)c2)cc1)c1cnc2[nH]ncc2c1` [N-[(4-{[3-fluoro-4-(2,2,2-trifluoroethoxy)benzene]sulfonyl}phenyl)methyl]-1H-pyrazolo[3,4-b]pyridine-5-carboxamide], the pIC50 at NAMPT (NAMPT enzymatic assay) is 7.99; in the experiment with A2780 cells (Homo sapiens, A2780, 72 h, SRB) it was 7.65.

With `O=C(NCc1ccc(S(=O)(=O)c2ccc(OC(F)(F)F)c(F)c2)cc1)c1cnc2[nH]ncc2c1` [N-[(4-{[3-fluoro-4-(trifluoromethoxy)benzene]sulfonyl}phenyl)methyl]-1H-pyrazolo[3,4-b]pyridine-5-carboxamide], the pIC50 is 7.76 at NAMPT (NAMPT enzymatic assay) and 7.86 in the experiment with A2780 cells (Homo sapiens, A2780, 72 h, SRB).

In the case of `O=C(NCc1ccc(S(=O)(=O)c2ccc(OC(F)(F)F)c(F)c2)cc1)c1cc2cnccc2[nH]1` [N-[(4-{[3-fluoro-4-(trifluoromethoxy)benzene]sulfonyl}phenyl)methyl]-1H-pyrrolo[3,2-c]pyridine-2-carboxamide], the negative logarithm of the IC50 (pIC50) on NAMPT (NAMPT enzymatic assay) was 7.58; with A2780 cells (Homo sapiens, A2780, 72 h, SRB), 7.69.

With `O=C(NCc1ccc(S(=O)(=O)c2ccc(C(F)(F)F)c(F)c2)cc1)c1cc2cnccc2[nH]1` [N-[(4-{[3-fluoro-4-(trifluoromethyl)benzene]sulfonyl}phenyl)methyl]-1H-pyrrolo[3,2-c]pyridine-2-carboxamide], the pIC50 was 7.99 on NAMPT (NAMPT enzymatic assay) and 7.89 in the experiment with A2780 cells (Homo sapiens, A2780, 72 h, SRB).

For `O=C(NCc1ccc(S(=O)(=O)c2cc(F)cc(OCC(F)(F)F)c2)cc1)c1cnc2[nH]ncc2c1` [N-[(4-{[3-fluoro-5-(2,2,2-trifluoroethoxy)benzene]sulfonyl}phenyl)methyl]-1H-pyrazolo[3,4-b]pyridine-5-carboxamide], the pIC50 on NAMPT (NAMPT enzymatic assay) was 8.10; with A2780 cells (Homo sapiens, A2780, 72 h, SRB) it was 8.32.

On to `O=C(NCc1ccc(S(=O)(=O)c2cc(F)cc(OCC(F)(F)F)c2)cc1)c1cc2ccncc2o1` [N-[(4-{[3-fluoro-5-(2,2,2-trifluoroethoxy)benzene]sulfonyl}phenyl)methyl]furo[2,3-c]pyridine-2-carboxamide], for which the pIC50 is 8.13 on NAMPT (NAMPT enzymatic assay) and 8.21 with A2780 cells (Homo sapiens, A2780, 72 h, SRB).

On to `O=C(NCc1ccc(S(=O)(=O)c2cc(F)cc(OCC(F)(F)F)c2)cc1)c1cc2ccncc2s1` [N-[(4-{[3-fluoro-5-(2,2,2-trifluoroethoxy)benzene]sulfonyl}phenyl)methyl]thieno[2,3-c]pyridine-2-carboxamide], for which the negative-log IC50 (pIC50) was 8.54 on NAMPT (NAMPT enzymatic assay) and 8.46 with A2780 cells (Homo sapiens, A2780, 72 h, SRB).

On to `CC(C)COc1cc(F)cc(S(=O)(=O)c2ccc(CNC(=O)c3cnc4[nH]ncc4c3)cc2)c1` [N-[(4-{[3-fluoro-5-(2-methylpropoxy)benzene]sulfonyl}phenyl)methyl]-1H-pyrazolo[3,4-b]pyridine-5-carboxamide], for which the pIC50 at NAMPT (NAMPT enzymatic assay) was 7.95; with A2780 cells (Homo sapiens, A2780, 72 h, SRB), 8.02.

With `CC(C)COc1cc(F)cc(S(=O)(=O)c2ccc(CNC(=O)c3cc4ccncc4o3)cc2)c1` [N-[(4-{[3-fluoro-5-(2-methylpropoxy)benzene]sulfonyl}phenyl)methyl]furo[2,3-c]pyridine-2-carboxamide], the negative logarithm of the IC50 (pIC50) at NAMPT (NAMPT enzymatic assay) was 7.99; in the experiment on A2780 cells (Homo sapiens, A2780, 72 h, SRB), 7.89.
